Assay results published in patent US20110060124A1, “HLA-BINDING PEPTIDES, PRECURSORS THEREOF, DNA FRAGMENTS AND RECOMBINANT VECTORS THAT CODE FOR THOSE PEPTIDE SEQUENCES” (priority 2004, published 2011).
Peptide text beside a SMILES is read from it.

Test system: HLA-A24 type molecule, product of the HLA-A*2402 gene
Experiment: Experiment of binding peptide to HLA-A24 type molecule (C1R-A24 cells, flow cytometry, Kd)
Design: species or system human
Settings: −log Kd value
Method: After neutralization, purified β2m was added to C1R-A24 cells, and the obtained product was added to serial dilutions of a peptide, and incubated on ice for 4 hours.
Subsequently, the MHC-pep count per C1R-A24 cell (proportional to the strength of fluorescence of the above-mentioned fluorescent antibody) was quantitatively measured using an FACScan fluorescence-activated cell sorter (Becton Dickinson Biosciences). A binding dissociation constant Kd value between the HLA-A24 type molecule and the peptide was calculated from the average strength of fluorescence per cell by a published method (Udaka et al., Immunogenetics, 51, 816-828, 2000).

CC[C@H](C)[C@H](NC(=O)[C@@H]1CCCN1C(=O)[C@H](CC(=O)O)NC(=O)[C@H](Cc1ccccc1)NC(=O)[C@H](CO)NC(=O)[C@H](CC(=O)O)NC(=O)[C@H](CC(C)C)NC(=O)[C@@H](NC(=O)[C@@H](N)C(C)C)[C@@H](C)CC)C(=O)O [SEQ ID NO: 2] (H-VILDSFDPI-OH; N-terminus and C-terminus assumed)
binding experimental value: 5.324

CC[C@H](C)[C@H](N)C(=O)N[C@H](C(=O)N[C@@H](Cc1ccc(O)cc1)C(=O)N[C@@H](CO)C(=O)N[C@H](C(=O)N[C@@H](Cc1ccc(O)cc1)C(=O)NCC(=O)N[C@@H](CCCCN)C(=O)N[C@@H](Cc1ccccc1)C(=O)O)[C@@H](C)O)[C@@H](C)O [SEQ ID NO: 107] (H-ITYSTYGKF-OH; N-terminus and C-terminus assumed)
binding experimental value: 6.374

CC[C@H](C)[C@H](N)C(=O)N[C@H](C(=O)N[C@@H](Cc1ccc(O)cc1)C(=O)N[C@@H](CO)C(=O)N[C@H](C(=O)N[C@@H](Cc1ccc(O)cc1)C(=O)N[C@@H](CS)C(=O)N[C@@H](CCCCN)C(=O)N[C@@H](Cc1ccccc1)C(=O)O)[C@@H](C)O)[C@@H](C)O [SEQ ID NO: 40] (H-ITYSTYCKF-OH; N-terminus and C-terminus assumed)
binding experimental value: 6.975
